Reference: PubChem BioAssay (NCI)
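Each compound was tested at five concentrations against cells in 96-well plates for 48 hours. TGI denotes the concentration required for complete inhibition of growth.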

Legend:
Experiment in all cases: NCI-60 cell line screen, 48 h
M14 melanoma = tested on: M14 melanoma
K-562 leukemia = tested on: K-562 leukemia
IGROV1 ovarian = tested on: IGROV1 ovarian
UACC-257 melanoma = tested on: UACC-257 melanoma
HOP-62 NSCLC = tested on: HOP-62 NSCLC
SK-MEL-2 melanoma = tested on: SK-MEL-2 melanoma
HCC-2998 colon = tested on: HCC-2998 colon
DMS 114 small cell lung = tested on: DMS 114 small cell lung
SK-OV-3 ovarian = tested on: SK-OV-3 ovarian
SF-539 CNS = tested on: SF-539 CNS
RPMI-8226 leukemia = tested on: RPMI-8226 leukemia
EKVX NSCLC = tested on: EKVX NSCLC
OVCAR-5 ovarian = tested on: OVCAR-5 ovarian
TK-10 renal = tested on: TK-10 renal
SN12C renal = tested on: SN12C renal
MALME-3M melanoma = tested on: MALME-3M melanoma
MDA-N = tested on: MDA-N
DU-145 prostate = tested on: DU-145 prostate

Row | Compound | TGI (M14 melanoma) [µM] | TGI (K-562 leukemia) [µM] | TGI (IGROV1 ovarian) [µM] | TGI (UACC-257 melanoma) [µM] | TGI (HOP-62 NSCLC) [µM] | TGI (SK-MEL-2 melanoma) [µM] | TGI (HCC-2998 colon) [µM] | TGI (DMS 114 small cell lung) [µM] | TGI (SK-OV-3 ovarian) [µM] | TGI (SF-539 CNS) [µM] | TGI (RPMI-8226 leukemia) [µM] | TGI (EKVX NSCLC) [µM] | TGI (OVCAR-5 ovarian) [µM] | TGI (TK-10 renal) [µM] | TGI (SN12C renal) [µM] | TGI (MALME-3M melanoma) [µM] | TGI (MDA-N) [µM] | TGI (DU-145 prostate) [µM]
1 | CC(C)C(/C=C/c1ccccc1)=N\NC(=O)N/N=C(/C=C/c1ccccc1)C(C)C | > 100 | > 100 | > 100 | > 100 | > 100 | 52 | > 100 | 60.1 | > 100 | > 100 | > 100 | 45.8 | > 100 | > 100 | 33.2 | – | – | –
2 | CC(=O)c1ccc(NC(=O)/C(=N\NC(N)=O)C(C#N)CC(C)(C)C=O)cc1 (stereo not drawn) | > 100 | > 100 | > 100 | > 100 | > 100 | > 100 | > 100 | > 100 | > 100 | > 100 | > 100 | > 100 | > 100 | > 100 | > 100 | – | – | –
3 | C[C@]12CCC(=O)C=C1CC[C@@H]1[C@@H]2C(=O)C[C@@]2(C)[C@H]1CC[C@]2(O)C(=O)CO | > 100 | > 100 | > 100 | – | – | > 100 | > 100 | > 100 | > 100 | > 100 | > 100 | > 100 | – | > 100 | > 100 | > 100 | – | –
4 | CN(C)c1nc(N(C)C)nc(N(C)CN(C)c2nc(N(C)C)nc(N(C)C)n2)n1 | > 100 | > 100 | > 100 | > 100 | > 100 | > 100 | > 100 | > 100 | > 100 | > 100 | > 100 | > 100 | > 100 | > 100 | > 100 | > 100 | – | –
5 | CSC(=S)N(C)NC(=O)c1cccc(C(=O)NN(C)C(=S)SC)n1 | > 100 | > 100 | 49.9 | 56.9 | 37.3 | – | – | 17 | – | 70.1 | > 100 | > 100 | > 100 | – | 92 | – | – | –
6 | COCC(=O)[C@]1(O)Cc2c(O)c3c(c(O)c2[C@@H](OC2CC(N)C(O)C(C)O2)C1)C(=O)c1c(OC)cccc1C3=O (stereo partly drawn) | 0.275 | 0.785 | 6.83 | 1.48 | 0.847 | 0.259 | 0.691 | 0.477 | 4.03 | 0.312 | 0.564 | 2.9 | 1.04 | 13.8 | 3.42 | 0.335 | 0.249 | 0.974
